# Columns and labels:
# NPC-derived HLCs [1] = type: cell-based, human; details: for cholesterol accumulation in NPC-HLCs (filipin staining): 1 mM hydroxypropyl-cyclodextrin, FIG. 18
# Procedure: For hepatocyte-like cell (HLC) induction, the culture medium of semi-confluent human iPS cells were switched from the iPS medium to the definitive endoderm differentiation medium containing RPMI1640 supplemented with 2% B27 (Life technologies), 100 ng/m1 Activin A and 1 mM Sodium butyrate (NaB, SIGMA). The NaB concentration is changed in 0.5 mM on day 2. On day 4, the cells were harvested and re-seeded onto Matrigel-coated dishes in hepatic differentiation medium containing DMEM supplemented with 20% KSR, 1 mM glutamine, 1 mM NEAA, 0.1 mM 2-mercaptoethanol (SIGMA), 1% Dimethyl sulfoxide (DMSO, SIGMA). CXCR4 expressions were examined by FACS on day 4. On day 11, the cells were harvested and re-cultured in the hepatic maturation medium containing L15 medium (SIGMA) supplemented with 8.3% FBS, 8.3% tryptose phosphate broth (SIGMA), 10 mM hydrocortisone 21-hemisuccinate (SIGMA), 1 mM insulin (SIGMA), 2 mM glutamine, lOng/ml Hepatocyte growth factor (HGF, R & D) and 20 ng/ml Oncostatin M (OSM, R & D). On day 18, the cells were used for various experiments. For the hydroxypropyl cyclodextrin treatments, HLCs were cultured with 0.1 mM or 1 mM of the hydroxypropyl cyclodextrins for four days. For Annexin and TUNEL stainings, HLCs are cultured for four days and a week from day 18, respectively.
# (§1) Alkaline phosphatase staining was performed using the Leukocyte Alkaline Phosphatase kit (SIGMA). For immunocytochemistry, cells were fixed with PBS containing 4% paraformaldehyde for 30 min at 4° C. For the molecules localized in nucleus, samples were treated with 0.2% Triton X-100 for 15 min at room temperature (RT). The cells were washed three times with PBS containing 2% FBS and then incubated overnight at 4° C. in PBS containing 2% FBS with primary antibodies. Nucleuses were stained with Propidium Iodide (PI, WAKO, Japan) and 1 mg/ml Hoechst 33258 (Invitrogen). The list of the primary and secondary antibodies is described in Table 3. For Filipin staining, samples were washed with PBS three times after the fixing and incubated with PBS containing 1.5 mg/ml glycine for 10 min at RT. The samples were then treated with PBS containing 10% FBS and 50 mg/ml Filipin (SIGMA). The data was calculated by UV absorption (360/460) and analyzed with Developer Toolbox software of IN CELL ANALYZER 6000 (GE Healthcare). The number of insoluble p62 granules were counted by IN CELL ANALYZER 6000 (GE Healthcare). To investigate glycogen accumulation, Periodic acid Schiff (PAS) staining of hepatocyte-like cells were performed by PAS staining solution (Muto Pure chemicals, Tokyo, Japan), according to the manufacturer's protocol.
# The inventors therefore treated the HLCs derived from normal and NPC-iPS cell lines with a series of 2-hydroxypropyl-cyclodextrins with different cavity sizes, and observed effect of a series of hydroxypropyl-cyclodextrins. HLCs were cultured with 1 mM of the indicated hydroxypropyl-cyclodextrin for 4 days, stained with filipin and analyzed with an IN CELL ANALYSER (GE Healthcare) (FIG. 18).
# (§2) The size of HLCs is decreased by the treatments with HPBCD and HPGCD (data not shown). Effects of various concentration of HPBCD and HPGCD in NPC-derived HLCs was observes. HLCs were cultured with HPBCD or HPGCD for 4 days, stained with filipin and analyzed with an IN CELL ANALYSER (GE Healthcare).
# isolated erythrocyte = details: in vitro; cited from earlier work
# NPC child patients = details: intravenous instillation 2500 mg/kg per time, 1 to 3 times per week, more than 1 year; cited from earlier work
# NPC1-defective cells = details: reported; cited from earlier work
# [2] = test system: Npc1 gene-defective (Npc1−/−) mice; details: cited from earlier work
# normal mice = assay: Acute toxicity test in normal mice; type: in vivo, mouse; details: 14.4 mM, 19.18 ml/g subcutaneous, 8-week-old normal mice; FIG. 34
# Procedure: To confirm the excellent safety of HPGCD, acute toxicity was tested using normal mice. 14.4 mM HPBCD or HPGCD were injected in the amount of 19.18 ml/g into subcutaneous tissues of 8-week-old mice (n=10), and then survival rates were calculated.
# LC3 = assay: Immunoblot of LC3 expression in HLCs; type: cell-based, human; details: 1 mM HPCD, 4 days; FIG. 22
# Procedure: (§3) Protein lysates were separated by SDS-PAGE and transferred to PVDF membrane. LC3-I and LCS3-II were detected by anti-LC3 antibody (Cell Signaling). The data are normalized to α-tubulin expression. The HLCs were solved in RIPA buffer and then insoluble p62 was collected as a pellet after the centrifuge of the samples.
# (§4) HLCs were culture with 1 mM 2-hydroxypropylcyclodextrins (HPCDs) for 4 days, and ATP level, expression levels of LC3 and p62, and insoluble p62 granules were measured.
# NPC-derived HLCs [3] = type: cell-based, human; details: cells treated during HLC differentiation; FIG. 20
# p62 [4] = assay: Count of insoluble p62 granules in HLCs (IN CELL ANALYZER); type: cell-based, human; details: 1 mM HPCD, 4 days; FIG. 24
# Procedure: as §1, with “To investigate glycogen accumulation, Periodic acid Schiff (PAS) staining of hepatocyte-like cells were performed by PAS staining solution (Muto Pure chemicals, Tokyo, Japan), according to the manufacturer's protocol.” left out
# as §4
# p62 [5] = assay: Immunoblot of insoluble p62 in HLCs; type: cell-based, human; details: 1 mM HPCD, 4 days; FIG. 23
# Procedure: as §3, §4
# NPC-derived HLCs [6] = assay: Cell size of HLCs; type: cell-based, human; details: data not shown
# Procedure: The cell sizes of albumin-positive cells was calculated by Developer Toolbox software of IN CELL ANALYZER 6000 (GE Healthcare).
# as §2
# NPC-derived HLCs [7] = assay: Measurement of ATP in HLCs; type: cell-based, human; details: 1 mM HPCD, 4 days; FIG. 21
# Procedure: Hepatocyte-like cells derived from the iPSC lines were cultured in DMEM medium in the absence of glucose for 24 hours and were then cultured in the DMEM medium containing 10% FBS and high glucose for 6 hours. ATP was measured by ATP measurement Kit (TOYO INK), according to the manufacturer's protocol.
# as §4
# rats = details: acute intravenous administration to rats; cited from earlier work
molecule,measurement,setting,value
2-Hydroxypropyl-α-cyclodextrin [HPACD],activity on hepatocyte-like cells differentiation-induced from NPC patient-derived iPS cells,NPC-derived HLCs [1],no activity at all
same,cholesterol accumulation in NPC-HLCs (filipin staining),NPC-derived HLCs [1]; 4 days,did not show any effect on cholesterol accumulation
same,hemolytic activity (order),isolated erythrocyte,HPBCD>HPACD>HPGCD
"CC(O)COC[C@H]1O[C@@H]2O[C@H]3[C@H](O)[C@@H](O)[C@@H](O[C@H]4[C@H](O)[C@@H](O)[C@@H](O[C@H]5[C@H](O)[C@@H](O)[C@@H](O[C@H]6[C@H](O)[C@@H](O)[C@@H](O[C@H]7[C@H](O)[C@@H](O)[C@@H](O[C@H]8[C@H](O)[C@@H](O)[C@@H](O[C@H]1[C@H](O)[C@H]2O)O[C@@H]8COCC(C)O)O[C@@H]7COCC(C)O)O[C@@H]6COCC(C)O)O[C@@H]5COCC(C)O)O[C@@H]4COCC(C)O)O[C@@H]3COCC(C)O (stereo partly drawn) [HPBCD, 2-hydroxypropyl-β-cyclodextrin]",nervous symptom,NPC child patients,has not been improved yet
same,splenohepatomegaly and brain wave,NPC child patients,certain effect of reduction of splenohepatomegaly and improvement in a brain wave
same,cholesterol accumulation in NPC1-defective cells,NPC1-defective cells,effective for reducing of cholesterol accumulation
same,cholesterol accumulated in hepatocyte-like cells derived from NPC,NPC-derived HLCs [1],removed cholesterol accumulated in hepatocyte-like cells derived from NPC
same,function of the hepatocyte-like cells,NPC-derived HLCs [1],recovered the function of the hepatocyte-like cells
same,cholesterol accumulation in NPC-HLCs (filipin staining),NPC-derived HLCs [1]; 4 days,significantly decreased
same,cholesterol accumulation in NPC-derived HLCs (filipin staining),"NPC-derived HLCs [1]; low concentration 100 μM, 4 days, FIG. 19",ineffective for reducing cholesterol accumulation
same,improving effect compared with systemic administration,[2]; directly administered into the brain,increased a few hundreds times
same,medical state or survival,[2]; intravenous administration,effective in improving the medical state or prolonging survival
same,survival after injection (acute toxicity),normal mice,Almost all mice injected with HPBCD dies up to 72 hours after injection
same,hemolytic activity (order),isolated erythrocyte,HPBCD>HPACD>HPGCD
same,expression level of LC3,LC3,recovered to normal levels
same,"free cholesterol accumulation, treatment during HLC differentiation",NPC-derived HLCs [3],effective at the intermediate stages in hepatic differentiation
same,proportion of HLCs carrying more than 40 granules of insoluble p62 aggregation,p62 [4],greatly reduced
same,amount of insoluble p62,p62 [5],reduced the amount of insoluble p62
same,size of HLCs,NPC-derived HLCs [6],decreased
same,ATP level,NPC-derived HLCs [7],recovered
OC[C@H]1O[C@@H]2O[C@H]3[C@H](O)[C@@H](O)[C@@H](O[C@H]4[C@H](O)[C@@H](O)[C@@H](O[C@H]5[C@H](O)[C@@H](O)[C@@H](O[C@H]6[C@H](O)[C@@H](O)[C@@H](O[C@H]7[C@H](O)[C@@H](O)[C@@H](O[C@H]1[C@H](O)[C@H]2O)O[C@@H]7CO)O[C@@H]6CO)O[C@@H]5CO)O[C@@H]4CO)O[C@@H]3CO [α-cyclodextrin],intravenous dose showing lethality to 50% of population (LD50 value),rats,1000 mg/kg
OC[C@H]1O[C@@H]2O[C@H]3[C@H](O)[C@@H](O)[C@@H](O[C@H]4[C@H](O)[C@@H](O)[C@@H](O[C@H]5[C@H](O)[C@@H](O)[C@@H](O[C@H]6[C@H](O)[C@@H](O)[C@@H](O[C@H]7[C@H](O)[C@@H](O)[C@@H](O[C@H]8[C@H](O)[C@@H](O)[C@@H](O[C@H]1[C@H](O)[C@H]2O)O[C@@H]8CO)O[C@@H]7CO)O[C@@H]6CO)O[C@@H]5CO)O[C@@H]4CO)O[C@@H]3CO [β-cyclodextrin],intravenous dose showing lethality to 50% of population (LD50 value),rats,788 mg/kg
OC[C@H]1O[C@@H]2O[C@H]3[C@H](O)[C@@H](O)[C@@H](O[C@H]4[C@H](O)[C@@H](O)[C@@H](O[C@H]5[C@H](O)[C@@H](O)[C@@H](O[C@H]6[C@H](O)[C@@H](O)[C@@H](O[C@H]7[C@H](O)[C@@H](O)[C@@H](O[C@H]8[C@H](O)[C@@H](O)[C@@H](O[C@H]9[C@H](O)[C@@H](O)[C@@H](O[C@H]1[C@H](O)[C@H]2O)O[C@@H]9CO)O[C@@H]8CO)O[C@@H]7CO)O[C@@H]6CO)O[C@@H]5CO)O[C@@H]4CO)O[C@@H]3CO [γ-cyclodextrin],intravenous dose showing lethality to 50% of population (LD50 value),rats,> 3750 mg/kg
